Measurements published in PubChem BioAssay AID1615 (Sanford-Burnham Center for Chemical Genomics, 2009).
≈ marks a conversion by molar mass, not a printed value.

System: aqueous buffer solubility, UV absorbance, 18 h equilibrium
Experiment: aqueous buffer solubility of compounds, late-stage follow-up, ADME assay, biophysical, UV absorbance, pH 5.0, 6.2, 7.4 (AID 1615)
Details: at 300 µM, stronger effect = higher value

solubility: 18 µg/mL (≈ 45.3 µM)
solubility (measured here: solubility at pH 5.0): 8.4 µg/mL (≈ 21.1 µM)
solubility (measured here: solubility at pH 6.2): 8.4 µg/mL (≈ 21.1 µM)
SMILES: C=CCn1c(SCC(=O)c2ccc(O)c(O)c2)nnc1-c1ccccc1OC
